Measurements published in patent publication US10112958B2, “N-[2-(2-amino-6,6-disubstituted-4,4a,5,6-tetrahydropyrano[3,4-d][1,3]thiazin-8a(8H)-YL)-1,3-thiazol-4-YL] amides” (Pfizer Inc., priority 2015, dated 2018).

Each compound was assayed against T1, BACE1 enzyme (Homo sapiens, UniProt P56817) (assay: BACE1 Cell-Free Assay (fluorescence polarization, cleavage of synthetic APP substrate)). Details: geometric mean of 2-4 determinations unless otherwise indicated (b: ≥5 determinations; c: single determination); 0.1 nM BACE1, 150 nM peptide substrate, pH 4.5, 3 hours at 37° C.
T1 construct: transfected with a soluble BACE construct (BACE1deltaTM96His); His (C); made in house; host or cells: CHO-K1 cells (secreted into conditioned media)
Type: biochemical
Excerpt: BACE1 Cell-Free Assay: Beta-secretase (BACE) is one of the enzymes involved in the generation of the amyloid beta peptide found in the amyloid plaques of Alzheimer's disease patients. This assay measures the inhibition of the beta-secretase enzyme as it cleaves a non-native peptide.
A synthetic APP substrate that can be cleaved by beta-secretase having N-terminal biotin and made fluorescent by the covalent attachment of Oregon Green at the Cys residue is used to assay beta-secretase activity in the presence or absence of the inhibitory compounds. The substrate is Biotin-GLTNIKTEEISEISY^EVEFR-C[Oregon Green]KK-OH. The BACE1 enzyme is affinity purified material from conditioned media of CHO-K1 cells that have been transfected with a soluble BACE construct (BACE1deltaTM96His). Compounds are incubated in a ½ log dose response curve from a top concentration of 100 μM with BACE1 enzyme and the biotinylated fluorescent peptide in 384-well black plates (Thermo Scientific #4318). BACE1 is at a final concentration of 0.1 nM with a final concentration of peptide substrate of 150 nM in a reaction volume of 30 μL assay buffer [100 mM sodium acetate, pH 4.5 (brought to pH with acetic acid), and 0.001% Tween-20]. Plates are covered and incubated for 3 hours at 37° C. The reaction is stopped with the addition of 30 μL of 1.5 μM Streptavidin (Pierce, #21125). After a 10 minute incubation at room temperature, plates are read on a PerkinElmer EnVision for fluorescence polarization (Ex485 nm/Em530 nm). The activity of the beta-secretase enzyme is detected by changes in the fluorescence polarization that occur when the substrate is cleaved by the enzyme.

T1 sequence (P56817 46-457 limits assumed): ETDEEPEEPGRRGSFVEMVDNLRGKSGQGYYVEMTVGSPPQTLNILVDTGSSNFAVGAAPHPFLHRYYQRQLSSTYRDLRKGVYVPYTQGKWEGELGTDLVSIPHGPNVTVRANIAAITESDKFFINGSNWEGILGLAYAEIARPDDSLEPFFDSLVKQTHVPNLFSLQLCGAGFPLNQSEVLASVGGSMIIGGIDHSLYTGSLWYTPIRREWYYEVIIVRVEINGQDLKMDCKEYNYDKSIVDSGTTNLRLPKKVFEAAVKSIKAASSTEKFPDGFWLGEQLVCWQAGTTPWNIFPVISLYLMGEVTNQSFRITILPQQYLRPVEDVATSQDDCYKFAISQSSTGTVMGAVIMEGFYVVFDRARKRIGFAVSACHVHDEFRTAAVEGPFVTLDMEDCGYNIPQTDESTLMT

First: NC1=N[C@@]2(c3nc(NC(=O)c4ccc(OC(F)F)cn4)cs3)COC3(COC3)C[C@H]2CS1 [Example 29, N-{2-[(4a′R,8a′R)-2′-amino-4a′,5′-dihydro-4′H-spiro[oxetane-3,6′-pyrano[3,4-d][1,3]thiazin]-8a′(8′H)-yl]-1,3-thiazol-4-yl}-5-(difluoromethoxy)pyridine-2-carboxamide]
Second: C[C@@]1(CF)C[C@H]2CSC(N)=N[C@@]2(c2nc(NC(=O)c3ccc(OC(F)F)cn3)cs2)CO1 [Example 34, N-{2-[(4aR,6S,8aR)-2-amino-6-(fluoromethyl)-6-methyl-4,4a,5,6-tetrahydropyrano[3,4-d][1,3]thiazin-8a(8H)-yl]-1,3-thiazol-4-yl}-5-(difluoromethoxy) pyridine-2-carboxamide]
The IC50 of the first is 3.5-fold higher: 0.675 µM for the first, 0.194 µM for the second.

`CC1(C)C[C@H]2CSC(N)=N[C@@]2(c2nc(NC(=O)c3ncc(OC(F)F)cc3Cl)cs2)CO1` [Example 30, N-{2-[(4aR,8aR)-2-amino-6,6-dimethyl-4,4a,5,6-tetrahydropyrano[3,4-d][1,3]thiazin-8a(8H)-yl]-1,3-thiazol-4-yl}-3-chloro-5-(difluoromethoxy)pyridine-2-carboxamide] and `CC[C@@]1(C)C[C@H]2CSC(N)=N[C@@]2(c2nc(NC(=O)c3ncc(OC(F)F)cc3C)cs2)CO1` [Example 36, N-{2-[(4aR,6S,8aR)-2-amino-6-ethyl-6-methyl-4,4a,5,6-tetrahydropyrano[3,4-d][1,3]thiazin-8a(8H)-yl]-1,3-thiazol-4-yl}-5-(difluoromethoxy)-3-methylpyridine-2-carboxamide] are within 1.5-fold of each other in IC50: 0.059 µM for the first, 0.06 µM for the second.

First: CC1(C)C[C@H]2CSC(N)=N[C@@]2(c2nc(NC(=O)C(C)(C)F)cs2)CO1 [Example 31, N-{2-[(4aR,8aR)-2-amino-6,6-dimethyl-4,4a,5,6-tetrahydropyrano[3,4-d][1,3]thiazin-8a(8H)-yl]-1,3-thiazol-4-yl}-2-fluoro-2-methylpropanamide]
Second: COC(C)(C)C(=O)Nc1csc([C@]23COC(C)(C)C[C@H]2CSC(N)=N3)n1 [Example 32, N-{2-[(4aR,8aR)-2-amino-6,6-dimethyl-4,4a,5,6-tetrahydropyrano[3,4-d][1,3]thiazin-8a(8H)-yl]-1,3-thiazol-4-yl}-2-methoxy-2-methylpropanamide]
The IC50 of the first is 1.9-fold lower: 0.911 µM for the first, 1.69 µM for the second.

First: CC1(C)C[C@H]2CSC(N)=N[C@@]2(c2nc(NC(=O)C34CC(C3)C4)cs2)CO1 [Example 33, N-{2-[(4aR,8aR)-2-amino-6,6-dimethyl-4,4a,5,6-tetrahydropyrano[3,4-d][1,3]thiazin-8a(8H)-yl]-1,3-thiazol-4-yl} bicyclo[1.1.1]pentane-1-carboxamide]
Second: CC[C@@]1(C)C[C@H]2CSC(N)=N[C@@]2(c2nc(NC(=O)C3C4CC3C4)cs2)CO1 (stereo partly drawn) [Example 37, N-{2-[(4aR,6S,8aR)-2-amino-6-ethyl-6-methyl-4,4a,5,6-tetrahydropyrano[3,4-d][1,3]thiazin-8a(8H)-yl]-1,3-thiazol-4-yl}bicyclo[1.1.1]pentane-2-carboxamide]
The IC50 of the first is 4.1-fold higher: 0.734 µM for the first, 0.177 µM for the second.

First: C[C@]1(CF)C[C@H]2CSC(N)=N[C@@]2(c2nc(NC(=O)c3ccc(OC(F)F)cn3)cs2)CO1 [Example 35, N-{2-[(4aR,6R,8aR)-2-amino-6-(fluoromethyl)-6-methyl-4,4a,5,6-tetrahydropyrano[3,4-d][1,3]thiazin-8a(8H)-yl]-1,3-thiazol-4-yl}-5-(difluoromethoxy) pyridine-2-carboxamide]
Second: COC[C@]1(C)C[C@H]2CSC(N)=N[C@@]2(c2nc(NC(=O)c3ccc(OC(F)F)cn3)cs2)CO1 [Example 40, N-{2-[(4aR,6S,8aR)-2-amino-6-(methoxymethyl)-6-methyl-4,4a,5,6-tetrahydropyrano[3,4-d][1,3]thiazin-8a(8H)-yl]-1,3-thiazol-4-yl}-5-(difluoromethoxy) pyridine-2-carboxamide]
The IC50 of the first is 12-fold lower: 0.176 µM for the first, 2.08 µM for the second.

`NC1=N[C@@]2(c3nc(NC(=O)c4ccc(F)cn4)cs3)COC3(CCC3)C[C@H]2CS1` [Example 41, N-{2-[(4a′R,8a′R)-2′-amino-4a′,5′-dihydro-4′H-spiro[cyclobutane-1,6′-pyrano[3,4-d] [1,3]thiazin]-8a′(8′H)-yl]-1,3-thiazol-4-yl}-5-fluoropyridine-2-carboxamide] showed an IC50 of 0.714 µM.
